69 molecules from patent US20110105457A1, “HETEROCYCLIC COMPOUND HAVING INHIBITORY ACTIVITY ON PI3K” (SHIONOGI & CO., LTD., priority 2008, published 2011) can be followed below.

The target of this assay is PI-3 kinase γ (Homo sapiens, UniProt P48736). Kind of assay: PI3Kγ inhibitory activity, PI3-kinase HTRF assay (Millipore). The class given is biochemical. To be noted: 0.5 h; compound 50 μM; read-out: Inhibition ratio % (50 μM). As to the method: (Method) The PI3Kγ inhibitory activity of a compound was evaluated using PI3-kinase HTRF™ assay (Millipore) according to the following procedure.
Sequence of PI-3 kinase γ (P48736 whole entry): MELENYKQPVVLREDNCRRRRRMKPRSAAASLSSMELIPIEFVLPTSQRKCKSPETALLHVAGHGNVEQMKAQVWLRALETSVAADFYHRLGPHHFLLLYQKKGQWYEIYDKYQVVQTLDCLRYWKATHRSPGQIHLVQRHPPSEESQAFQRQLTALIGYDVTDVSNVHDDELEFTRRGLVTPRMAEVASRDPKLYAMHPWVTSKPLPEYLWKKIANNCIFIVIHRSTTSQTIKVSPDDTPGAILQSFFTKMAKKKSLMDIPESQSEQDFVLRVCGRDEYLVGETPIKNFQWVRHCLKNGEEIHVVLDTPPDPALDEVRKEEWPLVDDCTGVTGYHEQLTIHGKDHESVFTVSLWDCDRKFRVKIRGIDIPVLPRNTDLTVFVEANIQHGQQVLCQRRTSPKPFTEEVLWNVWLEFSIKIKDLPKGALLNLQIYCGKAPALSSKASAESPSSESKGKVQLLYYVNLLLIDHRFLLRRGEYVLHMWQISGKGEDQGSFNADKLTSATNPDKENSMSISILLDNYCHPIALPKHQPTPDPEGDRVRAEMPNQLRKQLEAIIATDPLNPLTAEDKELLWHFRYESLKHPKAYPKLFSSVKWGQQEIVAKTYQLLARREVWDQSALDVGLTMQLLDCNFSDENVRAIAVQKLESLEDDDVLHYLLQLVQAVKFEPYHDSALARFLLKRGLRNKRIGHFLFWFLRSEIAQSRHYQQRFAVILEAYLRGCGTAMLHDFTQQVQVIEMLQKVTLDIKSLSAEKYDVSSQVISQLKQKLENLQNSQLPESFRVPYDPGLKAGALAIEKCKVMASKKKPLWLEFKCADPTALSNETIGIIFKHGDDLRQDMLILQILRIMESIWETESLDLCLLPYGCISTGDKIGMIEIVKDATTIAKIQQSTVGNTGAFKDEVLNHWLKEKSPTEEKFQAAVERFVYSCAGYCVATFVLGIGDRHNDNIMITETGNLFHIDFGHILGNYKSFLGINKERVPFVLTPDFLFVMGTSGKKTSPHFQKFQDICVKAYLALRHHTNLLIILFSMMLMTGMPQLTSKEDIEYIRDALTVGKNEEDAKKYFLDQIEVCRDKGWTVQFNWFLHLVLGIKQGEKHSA
To each well of a testing plate was added 5 μL of a compound solution comprising 10% DMSO (200 μM as the concentration of the compound), 5 μL of 40 μM phosphatidylinositol (4,5)-bisphosphate/20 mM MgCl2/10 mM DTT, and 5 μL of 80 μg/mL PI-3 kinase γ/10 mM MgCl2/5 mM DTT, and then stood for 10 minutes.
Then, 5 μL of 40 μM ATP/10 mM MgCl2/5 mM DTT was added thereto. After reacting for 30 minutes at room temperature, 5 μL of a solution comprising EDTA and biotinylated phosphatidylinositol (3,4,5)-triphosphate was added to quench the reaction.
5 μL of a detection reagent comprising a europium-labeled anti-GST antibody, the GST-tagged PH domain, and allophycocyanin-labeled streptavidin was added thereto. After 18 hours, HTRF (excitation wavelength: 330 nm, measuring wavelengths: 620 nm and 665 nm) was measured.
A value of dividing an amount of fluorescence obtained at the measuring wavelength 665 nm by an amount of fluorescence obtained at 620 nm was defined as an HTRF ratio. The HTRF ratio in the absence of a compound was defined as 100% activity, and the HTRF ratio in the absence of PI-3 kinase γ was defined as 0% activity to calculate an inhibition ratio.
Take `COc1cccc(-c2ccc3nc(NC(=O)NCCc4ccccc4)cn3n2)c1` [Compound I-107]: the inhibition at 50 µM stood at 74%. Under `COc1cccc(-c2ccc3nc(NC(=O)Nc4cccs4)cn3n2)c1` [Compound I-108] stands 89%; under `COc1cccc(-c2ccc3nc(NC(=O)NC4CCCCC4)cn3n2)c1` [Compound I-109], 99%.

Turning to `CCCNC(=O)Nc1cn2nc(-c3cccc(OC)c3)ccc2n1` [Compound I-110], the inhibition at 50 µM is 81%.

`COc1cccc(-c2ccc3nc(NC(=O)Nc4ccsc4)cn3n2)c1` [Compound I-111]: the inhibition at 50 µM was found to be 55%.

In the case of `CCOC(=O)CNC(=O)Nc1cn2nc(-c3cccc(OC)c3)ccc2n1` [Compound I-112], the inhibition at 50 µM amounted to 84%. The value for `COc1cccc(-c2ccc3nc(NC(=O)NC(C)C)cn3n2)c1` [Compound I-113] was 86%. The value for `COc1cccc(-c2ccc3nc(NC(=O)NC4CCCC4)cn3n2)c1` [Compound I-115] was 78%; that for `COc1cccc(-c2ccc3nc(NC(=O)NCCCl)cn3n2)c1` [Compound I-116] was 76%.

As for `CCCCNC(=O)Nc1cn2nc(-c3cccc(OC)c3)ccc2n1` [Compound I-117], the inhibition at 50 µM was found to be 85%. Under `CNC(=O)Nc1cn2nc(C(=O)N[C@@H](C)C(N)=O)ccc2n1` [Compound I-121] stands 71%. Under `CNC(=O)Nc1cn2nc(N3CCOC3=O)ccc2n1` [Compound I-122] stands 61%; under `CNC(=O)Nc1cn2nc(-c3cccc(NC(C)=O)c3)ccc2n1` [Compound I-124], 105%; under `CNC(=O)Nc1cn2nc(-c3cccc(C(C)C)c3)ccc2n1` [Compound I-127], 79%. Under `CNC(=O)Nc1cn2nc(-c3cccc([N+](=O)[O-])c3)ccc2n1` [Compound I-128] stands 50%.

Regarding `CNC(=O)Nc1cn2nc(-c3cccc(COC(C)(C)C)c3)ccc2n1` [Compound I-131], the inhibition at 50 µM amounted to 70%. For `CNC(=O)Nc1cn2nc(-c3cccc(COC)c3)ccc2n1` [Compound I-132], the inhibition at 50 µM was 78%. The value for `CNC(=O)Nc1cn2nc(-c3ccc(-c4ccccc4)s3)ccc2n1` [Compound I-133] was 65%.

Turning to `CNC(=O)Nc1cn2nc(-c3cccc(C#N)c3)ccc2n1` [Compound I-134], the inhibition at 50 µM amounted to 59%.

As for `CNC(=O)Nc1cn2nc(-c3cccc(SC)c3)ccc2n1` [Compound I-135], the inhibition at 50 µM amounted to 80%. The value for `CNC(=O)Nc1cn2nc(-c3cccc(C(=O)N4CCOCC4)c3)ccc2n1` [Compound I-138] was 75%.

For `CNC(=O)Nc1cn2nc(-c3cccc(C(=O)NC(C)C)c3)ccc2n1` [Compound I-139], the inhibition at 50 µM was found to be 79%.

For the molecule `CNC(=O)Nc1cn2nc(-c3cccc(C(=O)NCC(C)C)c3)ccc2n1` [Compound I-140], the inhibition at 50 µM amounted to 60%. Regarding `CNC(=O)Nc1cn2nc(-c3cn[nH]c3)ccc2n1` [Compound I-141], the inhibition at 50 µM was 87%.

Regarding `CNC(=O)Nc1cn2nc(-c3cncnc3)ccc2n1` [Compound I-145], the inhibition at 50 µM was 70%. Under `CNC(=O)Nc1cn2nc(-c3cccc(OC(C)=O)c3)ccc2n1` [Compound I-146] stands 64%; under `CNC(=O)Nc1cn2nc(-c3ccncc3)ccc2n1` [Compound I-147], 77%. The value for `CNC(=O)Nc1cn2nc(-c3ccc(OC)nc3)ccc2n1` [Compound I-148] was 83%. The value for `CNC(=O)Nc1cn2nc(/C=C/c3ccc(OC)cc3)ccc2n1` [Compound I-149] was 53%.

Consider `CNC(=O)Nc1cn2nc(-c3cccc(OCc4ccccc4)c3)ccc2n1` [Compound I-150], for which the inhibition at 50 µM was found to be 71%. On to `CNC(=O)Nc1cn2nc(-c3cccc(OC)n3)ccc2n1` [Compound I-151], for which the inhibition at 50 µM was found to be 63%. For `CNC(=O)Nc1cn2nc(-c3cccc(O)c3)ccc2n1` [Compound I-152], the inhibition at 50 µM is 80%. As for `CNC(=O)Nc1cn2nc(-c3cccc(C(F)(F)F)c3)ccc2n1` [Compound I-154], the inhibition at 50 µM was determined as 54%. Under `CNC(=O)Nc1cn2nc(-c3cccc(-c4ccccc4)c3)ccc2n1` [Compound I-155] stands 57%. Regarding `CNC(=O)Nc1cn2nc(COc3ccccc3)ccc2n1` [Compound I-157], the inhibition at 50 µM was 58%.

For the molecule `CNC(=O)Nc1cn2nc(NC(=O)Nc3cccc(C(=O)O)c3)ccc2n1` [Compound I-159], the inhibition at 50 µM is 86%. Turning to `CNC(=O)Nc1cn2nc(NC(=O)c3ccc(C(=O)O)cc3)ccc2n1` [Compound I-160], the inhibition at 50 µM stood at 77%. With `CNC(=O)Nc1cn2nc(Nc3cccc(N(C)C)c3)ccc2n1` [Compound I-161], the inhibition at 50 µM turned out to be 102%. On to `CNC(=O)Nc1cn2nc(Nc3cccc(C(=O)O)c3)ccc2n1` [Compound I-162], for which the inhibition at 50 µM amounted to 89%.

As for `COc1cccc(-c2ccc3nc(NC(=O)CC(C)CC(C)(C)C)cn3n2)c1` (stereo not drawn) [Compound I-164], the inhibition at 50 µM worked out at 89%. Take `COc1cccc(-c2ccc3nc(NC(=O)c4ccccn4)cn3n2)c1` [Compound I-168]: the inhibition at 50 µM turned out to be 64%. Under `COc1cccc(-c2ccc3nc(NC(=O)c4ccncc4)cn3n2)c1` [Compound I-170] stands 60%; under `COC(=O)C[C@H](C)CC(=O)Nc1cn2nc(-c3cccc(OC)c3)ccc2n1` [Compound I-171], 71%. The value for `COc1cccc(-c2ccc3nc(NC(=O)CCC(=O)N(C)C)cn3n2)c1` [Compound I-172] was 81%.

Regarding `COc1cccc(-c2ccc3nc(NC(=O)Cc4ccccc4OC)cn3n2)c1` [Compound I-174], the inhibition at 50 µM was found to be 78%.

`COc1cccc(-c2ccc3nc(NC(=O)CNC(C)=O)cn3n2)c1` [Compound I-175]: the inhibition at 50 µM was determined as 66%. The value for `COc1cccc(-c2ccc3nc(NC(=O)c4ccc5[nH]nnc5c4)cn3n2)c1` [Compound I-177] was 85%; that for `COc1cccc(-c2ccc3nc(NC(=O)c4ccc[nH]4)cn3n2)c1` [Compound I-180] was 96%; that for `COc1cccc(-c2ccc3nc(NC(=O)CC(C)(C)C)cn3n2)c1` [Compound I-186] was 78%. Under `COc1cccc(-c2ccc3nc(NC(=O)CC4CC4)cn3n2)c1` [Compound I-188] stands 65%. Consider `COC(=O)c1cccc(C(=O)Nc2cn3nc(-c4cccc(OC)c4)ccc3n2)c1` [Compound I-192], for which the inhibition at 50 µM worked out at 52%. Take `COc1cccc(-c2ccc3nc(NC(=O)C4CCOCC4)cn3n2)c1` [Compound I-194]: the inhibition at 50 µM is 84%. The value for `COC(=O)[C@H]1CC[C@@H](C(=O)Nc2cn3nc(-c4cccc(OC)c4)ccc3n2)C1` [Compound I-195] was 82%; that for `COc1cccc(-c2ccc3nc(NC(=O)c4ccc(OC)c(OC)c4)cn3n2)c1` [Compound I-198] was 57%; that for `COc1cccc(-c2ccc3nc(NC(=O)c4cccc(N5CCOCC5)c4)cn3n2)c1` [Compound I-202] was 83%. Turning to `COc1cccc(-c2ccc3nc(NC(=O)c4cccc(N5CCN(C)CC5)c4)cn3n2)c1` [Compound I-203], the inhibition at 50 µM came out at 68%. Under `COc1cccc(-c2ccc3nc(NC(=O)c4cccc(-n5cncn5)c4)cn3n2)c1` [Compound I-204] stands 84%.

`COc1cccc(-c2ccc3nc(NC(=O)[C@H]4CCCCN4C(=O)OC(C)(C)C)cn3n2)c1` [Compound I-207]: the inhibition at 50 µM was 64%. For the molecule `COc1cccc(-c2ccc3nc(NC(=O)CCCN4CCCC4=O)cn3n2)c1` [Compound I-209], the inhibition at 50 µM turned out to be 81%. The value for `COc1cccc(-c2ccc3nc(NC(=O)C4CCN4C(C)(C)C)cn3n2)c1` (stereo not drawn) [Compound I-211] was 61%; that for `COc1cccc(-c2ccc3nc(NC(=O)CN(C)C(=O)OC(C)(C)C)cn3n2)c1` [Compound I-212] was 60%; that for `COCCC(=O)Nc1cn2nc(-c3cccc(OC)c3)ccc2n1` [Compound I-213] was 73%. Under `CNC(=O)Nc1cn2nc(Nc3cccc(C(N)=O)c3)ccc2n1` [Compound I-215] stands 70%; under `CNC(=O)Nc1cn2nc(Nc3cccc(C(=O)NC)c3)ccc2n1` [Compound I-216], 55%; under `CNC(=O)Nc1cn2nc(COc3cccc(C(=O)OC)c3)ccc2n1` [Compound I-217], 62%. The value for `CNC(=O)Nc1cn2nc(COc3cccnc3)ccc2n1` [Compound I-218] was 63%; that for `COc1cccc(-c2ccc3nc(Nc4ccccn4)cn3n2)c1` [Compound I-220] was 59%. With `CNC(=O)Nc1cn2nc(Nc3cccc(CO)c3)ccc2n1` [Compound I-222], the inhibition at 50 µM worked out at 87%. The value for `CCOC(=O)CNC(=O)Nc1cn2nc(-c3cncc(OC)c3)ccc2n1` [Compound I-223] was 86%.
